Measured values from patent US20250296959A1, “B7-H3 TARGETING PEPTIDES AND CONSTRUCTS THEREOF” (Mariana Oncology Inc., priority 2024, published 2025).
Starred links: 1 amine or outer side, 2 acyl side, 3 side chain; linkers in the order of their positions; H or OH if unused. Positions of bridges follow the written chain, without caps; N, C: chain ends. Non-standard residues stand in square brackets, D forms with d. Residues, ends and D or L forms follow the SMILES beside them. Groups on a side chain read outwards from the residue. *: point of attachment. X2 = O=C(O)CN1CCN(CC(=O)O)CCN(CC(=O)NCCOCCOCCOCCOCC(=O)*)CCN(CC(=O)O)CC1; Phe(3-CH2NH2) = O=C([C@H](Cc1cccc(CN[*:3])c1)N[*:1])[*:2]; DOTA = O=C(O)CN1CCN(CC(=O)O)CCN(CC(=O)*)CCN(CC(=O)O)CC1; Trp(5-F) = N[C@@H](Cc1c[nH]c2ccc(F)cc12)C(=O)O; Pro(cis-4-F) = O=C(O)[C@@H]1C[C@H](F)CN1; γGlu = O=C(O)[C@H](CCC(=O)[*:2])N[*:1]; 1Nal = N[C@@H](Cc1cccc2ccccc12)C(=O)O; Ala(4-THP) = N[C@@H](CC1CCOCC1)C(=O)O; cisHyp = O=C(O)[C@@H]1C[C@H](O)CN1; 4Pal = N[C@@H](Cc1ccncc1)C(=O)O; Tle = CC(C)(C)[C@H](N)C(=O)O; hLeu = CC(C)CC[C@H](N)C(=O)O

Molecular target: T1, human 4lg B7-H3 (Homo sapiens, UniProt Q5ZPR3)
T1 sequence (Q5ZPR3 29-534): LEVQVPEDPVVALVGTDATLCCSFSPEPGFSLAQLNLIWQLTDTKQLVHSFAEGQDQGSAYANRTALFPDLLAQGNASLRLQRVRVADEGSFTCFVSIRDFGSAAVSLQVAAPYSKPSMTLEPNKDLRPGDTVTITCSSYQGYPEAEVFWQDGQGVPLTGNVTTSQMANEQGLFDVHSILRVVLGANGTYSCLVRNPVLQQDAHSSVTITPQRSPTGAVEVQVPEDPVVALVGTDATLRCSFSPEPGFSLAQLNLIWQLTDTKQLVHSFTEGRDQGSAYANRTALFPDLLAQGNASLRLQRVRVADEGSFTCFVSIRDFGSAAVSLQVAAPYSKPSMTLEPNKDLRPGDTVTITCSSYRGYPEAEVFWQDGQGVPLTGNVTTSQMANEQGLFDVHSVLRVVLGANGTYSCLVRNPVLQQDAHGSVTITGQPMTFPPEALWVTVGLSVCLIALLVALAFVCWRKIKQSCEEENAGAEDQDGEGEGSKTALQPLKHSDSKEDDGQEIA
Assay: Affinity determination by surface plasmon resonance (SPR) to 4Ig B7-H3
Conditions: SPR KD—25° C., 4Ig B7-H3; 25° C. flow cell temperature

Compound	Kd
CC(=O)N[C@@H](CCC(C)C)C(=O)N[C@@H](Cc1ccc(O)cc1)C(=O)N[C@H]1CSSC[C@@H](C(=O)N[C@@H](Cc2cccc3ccccc23)C(=O)N[C@@H](Cc2ccccc2)C(=O)N2C[C@@H](O)C[C@H]2C(N)=O)NC(=O)[C@H](Cc2ccc(O)cc2)NC(=O)[C@H](C(C)C)NC(=O)[C@H](CC(=O)O)NC(=O)[C@H](Cc2ccncc2)NC(=O)[C@H](CCCCNC(=O)CN2CCN(CC(=O)O)CCN(CC(=O)O)CCN(CC(=O)O)CC2)NC(=O)CNC(=O)[C@H](C(C)(C)C)NC1=O [compound 250, Ac-hLeu-Y-C-Tbg-G-Lys(DOTA)-4PyA-D-V-Y-C-1Nal-F-(cisHyp)-CONH2] (Ac-[hLeu]YC[Tle]GK(DOTA)[4Pal]DVYC[1Nal]F[cisHyp]-NH2; disulfide 3-11)	10 to 100 nM
CC(=O)N[C@@H](CCC(C)C)C(=O)N[C@@H](Cc1ccc(O)cc1)C(=O)N[C@H]1CSSC[C@@H](C(=O)N[C@@H](Cc2cccc3ccccc23)C(=O)N[C@@H](Cc2ccccc2)C(=O)N2CCC[C@H]2C(N)=O)NC(=O)[C@H](Cc2ccc(O)cc2)NC(=O)[C@H](C(C)C)NC(=O)[C@H](CC(=O)O)NC(=O)[C@H](Cc2cccc(CNC(=O)COCCOCCOCCOCCNC(=O)CN3CCN(CC(=O)O)CCN(CC(=O)O)CCN(CC(=O)O)CC3)c2)NC(=O)[C@H](CCCCN)NC(=O)CNC(=O)[C@H](C(C)(C)C)NC1=O [compound 257, Ac-hLeu-Y-C-Tbg-G-K-MAF(PEG4-DOTA)-D-V-Y-C-1Nal-F-Pro-CONH2] (Ac-[hLeu]YC[Tle]GK[Phe(3-CH2NH2)](X2)DVYC[1Nal]FP-NH2; disulfide 3-11)	1 to 10 nM
CC(=O)N[C@@H](CCC(C)C)C(=O)N[C@@H](Cc1ccc(O)cc1)C(=O)N[C@H]1CSSC[C@@H](C(=O)N[C@@H](Cc2cccc3ccccc23)C(=O)N[C@@H](Cc2ccccc2)C(=O)N2CCC[C@H]2C(N)=O)NC(=O)[C@H](Cc2ccc(O)cc2)NC(=O)[C@H](C(C)C)NC(=O)[C@H](CC(=O)O)NC(=O)[C@H](Cc2cccc(CNC(=O)CC[C@H](NC(=O)CC[C@H](NC(=O)CC[C@H](NC(=O)CN3CCN(CC(=O)O)CCN(CC(=O)O)CCN(CC(=O)O)CC3)C(=O)O)C(=O)O)C(=O)O)c2)NC(=O)[C@H](CCCCN)NC(=O)CNC(=O)[C@H](C(C)(C)C)NC1=O [compound 258, Ac-hLeu-Y-C-Tbg-G-K-MAF(gE-gE-gE-DOTA)-D-V-Y-C-1Nal-F-Pro-CONH2] (Ac-[hLeu]YC[Tle]GK[Phe(3-CH2NH2)]([γGlu-γGlu-γGlu-DOTA])DVYC[1Nal]FP-NH2; disulfide 3-11)	1 to 10 nM
CC[C@H](C)[C@@H]1NC(=O)[C@@H](NC(=O)[C@H](Cc2ccc(O)cc2)NC(=O)[C@H](CCC(C)C)NC(C)=O)CSSC[C@@H](C(=O)N[C@@H](Cc2c[nH]c3ccc(F)cc23)C(=O)N[C@@H](Cc2ccccc2)C(=O)N2CCC[C@H]2C(N)=O)NC(=O)[C@H](Cc2ccc(O)cc2)NC(=O)[C@H](C(C)C)NC(=O)[C@H](CC(=O)O)NC(=O)[C@H](Cc2ccncc2)NC(=O)[C@H](CCCCNC(=O)CN2CCN(CC(=O)O)CCN(CC(=O)O)CCN(CC(=O)O)CC2)NC(=O)CNC1=O [compound 260, Ac-hLeu-Y-C-Ile-G-Lys(DOTA)-4PyA-D-V-Y-C-5FW-F-Pro-CONH2] (Ac-[hLeu]YCIGK(DOTA)[4Pal]DVYC[Trp(5-F)]FP-NH2; disulfide 3-11)	1 to 10 nM
CC[C@H](C)[C@@H]1NC(=O)[C@@H](NC(=O)[C@H](Cc2ccc(O)cc2)NC(=O)[C@H](CCC(C)C)NC(C)=O)CSSC[C@@H](C(=O)N[C@@H](Cc2c[nH]c3ccc(F)cc23)C(=O)N[C@@H](Cc2ccccc2)C(=O)N2CCC[C@H]2C(N)=O)NC(=O)[C@H](Cc2ccc(O)cc2)NC(=O)[C@H](C(C)C)NC(=O)[C@H](CC(=O)O)NC(=O)[C@H](CC2CCOCC2)NC(=O)[C@H](CCCCNC(=O)CN2CCN(CC(=O)O)CCN(CC(=O)O)CCN(CC(=O)O)CC2)NC(=O)CNC1=O [compound 261, Ac-hLeu-Y-C-Ile-G-Lys(DOTA)-ThpA-D-V-Y-C-5FW-F-Pro-CONH2] (Ac-[hLeu]YCIGK(DOTA)[Ala(4-THP)]DVYC[Trp(5-F)]FP-NH2; disulfide 3-11)	1 to 10 nM
CC(=O)N[C@@H](CCC(C)C)C(=O)N[C@@H](Cc1ccc(O)cc1)C(=O)N[C@H]1CSSC[C@@H](C(=O)N[C@@H](Cc2c[nH]c3ccc(F)cc23)C(=O)N[C@@H](Cc2ccccc2)C(=O)N2CCC[C@H]2C(=O)O)NC(=O)[C@H](Cc2ccc(O)cc2)NC(=O)[C@H](C(C)C)NC(=O)[C@H](CC(=O)O)NC(=O)[C@H](Cc2cccc(CNC(=O)CN3CCN(CC(=O)O)CCN(CC(=O)O)CCN(CC(=O)O)CC3)c2)NC(=O)[C@H](CCCCN)NC(=O)CNC(=O)[C@H](C(C)C)NC1=O [compound 262, Ac-hLeu-Y-C-V-G-K-MAF(DOTA)-D-V-Y-C-5FW-F-Pro-COOH] (Ac-[hLeu]YCVGK[Phe(3-CH2NH2)](DOTA)DVYC[Trp(5-F)]FP-OH; disulfide 3-11)	10 to 100 nM
CC(=O)N[C@@H](CCC(C)C)C(=O)N[C@@H](Cc1ccc(O)cc1)C(=O)N[C@H]1CSSC[C@@H](C(=O)N[C@@H](Cc2cccc3ccccc23)C(=O)N[C@@H](Cc2ccccc2)C(=O)N2C[C@@H](F)C[C@H]2C(=O)O)NC(=O)[C@H](Cc2ccc(O)cc2)NC(=O)[C@H](C(C)C)NC(=O)[C@H](CC(=O)O)NC(=O)[C@H](Cc2ccncc2)NC(=O)[C@H](CCCCNC(=O)CN2CCN(CC(=O)O)CCN(CC(=O)O)CCN(CC(=O)O)CC2)NC(=O)CNC(=O)[C@H](C(C)(C)C)NC1=O [compound 263, Ac-hLeu-Y-C-Tbg-G-Lys(DOTA)-4PyA-D-V-Y-C-1Nal-F-cis4FPro-CONH2] (Ac-[hLeu]YC[Tle]GK(DOTA)[4Pal]DVYC[1Nal]F[Pro(cis-4-F)]-OH; disulfide 3-11)	10 to 100 nM

Second part, the compound after the results:

Kd	Compound
1 to 10 nM	CC(=O)N[C@@H](CCC(C)C)C(=O)N[C@@H](Cc1ccc(O)cc1)C(=O)N[C@H]1CSSC[C@@H](C(=O)N[C@@H](Cc2c[nH]c3ccc(F)cc23)C(=O)N[C@@H](Cc2ccccc2)C(=O)N2CCC[C@H]2C(=O)N[C@H](CCCCNC(=O)CN2CCN(CC(=O)O)CCN(CC(=O)O)CCN(CC(=O)O)CC2)C(N)=O)NC(=O)[C@H](Cc2ccc(O)cc2)NC(=O)[C@H](C(C)C)NC(=O)[C@H](CC(=O)O)NC(=O)[C@H](Cc2ccc(O)cc2)NC(=O)[C@H](CCCCN)NC(=O)CNC(=O)[C@H](C(C)(C)C)NC1=O [compound 248, Ac-hLeu-Y-C-Tbg-G-K-Y-D-V-Y-C-5FW-F-Pro-dLys(DOTA)-CONH2] (Ac-[hLeu]YC[Tle]GKYDVYC[Trp(5-F)]FP[dK](DOTA)-NH2; disulfide 3-11)
1 to 10 nM	COc1ccc(C[C@@H]2NC(=O)[C@H](C(C)C)NC(=O)[C@H](CC(=O)O)NC(=O)[C@H](Cc3ccncc3)NC(=O)[C@H](CCCCNC(=O)CN3CCN(CC(=O)O)CCN(CC(=O)O)CCN(CC(=O)O)CC3)NC(=O)CNC(=O)[C@H](C(C)C)NC(=O)[C@@H](NC(=O)[C@H](Cc3ccc(O)cc3)NC(=O)[C@H](CCC(C)C)NC(C)=O)CSSC[C@@H](C(=O)N[C@@H](Cc3c[nH]c4ccc(F)cc34)C(=O)N[C@@H](Cc3ccccc3)C(=O)N3CCC[C@H]3C(N)=O)NC2=O)cc1 [compound 249, Ac-hLeu-Y-C-V-G-Lys(DOTA)-4PyA-D-V-OMeTyr-C-5FW-F-Pro-CONH2] (Ac-[hLeu]YCVGK(DOTA)[4Pal]DVY(Me)C[Trp(5-F)]FP-NH2; disulfide 3-11)
1 to 10 nM	CC[C@H](C)[C@@H]1NC(=O)[C@@H](NC(=O)[C@H](Cc2ccc(O)cc2)NC(=O)[C@H](CCC(C)C)NC(C)=O)CSSC[C@@H](C(=O)N[C@@H](Cc2c[nH]c3ccc(F)cc23)C(=O)N[C@@H](Cc2ccccc2)C(=O)N2C[C@@H](O)C[C@H]2C(N)=O)NC(=O)[C@H](Cc2ccc(O)cc2)NC(=O)[C@H](C(C)C)NC(=O)[C@H](CC(=O)O)NC(=O)[C@H](Cc2ccncc2)NC(=O)[C@H](CCCCNC(=O)CN2CCN(CC(=O)O)CCN(CC(=O)O)CCN(CC(=O)O)CC2)NC(=O)CNC1=O [compound 251, Ac-hLeu-Y-C-Ile-G-Lys(DOTA)-4PyA-D-V-Y-C-5FW-F-(cisHyp)-CONH2] (Ac-[hLeu]YCIGK(DOTA)[4Pal]DVYC[Trp(5-F)]F[cisHyp]-NH2; disulfide 3-11)
1 to 10 nM	CC(=O)N[C@@H](CCC(C)C)C(=O)N[C@@H](Cc1ccc(O)cc1)C(=O)N[C@H]1CSSC[C@@H](C(=O)N[C@@H](Cc2cccc3ccccc23)C(=O)N[C@@H](Cc2ccccc2)C(=O)N2CCC[C@H]2C(N)=O)NC(=O)[C@H](Cc2ccc(O)cc2)NC(=O)[C@H](C(C)C)NC(=O)[C@H](CC(=O)O)NC(=O)[C@H](Cc2cccc(CNC(=O)CC[C@H](NC(=O)CN3CCN(CC(=O)O)CCN(CC(=O)O)CCN(CC(=O)O)CC3)C(=O)O)c2)NC(=O)[C@H](CCCCN)NC(=O)CNC(=O)[C@H](C(C)(C)C)NC1=O [compound 254, Ac-hLeu-Y-C-Tbg-G-K-MAF(gE-DOTA)-D-V-Y-C-1Nal-F-Pro-CONH2] (Ac-[hLeu]YC[Tle]GK[Phe(3-CH2NH2)]([γGlu-DOTA])DVYC[1Nal]FP-NH2; disulfide 3-11)
1 to 10 nM	CC(=O)N[C@@H](CCC(C)C)C(=O)N[C@@H](Cc1ccc(O)cc1)C(=O)N[C@H]1CSSC[C@@H](C(=O)N[C@@H](Cc2cccc3ccccc23)C(=O)N[C@@H](Cc2ccccc2)C(=O)N2CCC[C@H]2C(N)=O)NC(=O)[C@H](Cc2ccc(O)cc2)NC(=O)[C@H](C(C)C)NC(=O)[C@H](CC(=O)O)NC(=O)[C@H](Cc2cccc(CNC(=O)CC[C@H](NC(=O)CC[C@H](NC(=O)CN3CCN(CC(=O)O)CCN(CC(=O)O)CCN(CC(=O)O)CC3)C(=O)O)C(=O)O)c2)NC(=O)[C@H](CCCCN)NC(=O)CNC(=O)[C@H](C(C)(C)C)NC1=O [compound 255, Ac-hLeu-Y-C-Tbg-G-K-MAF(gE-gE-DOTA)-D-V-Y-C-1Nal-F-Pro-CONH2] (Ac-[hLeu]YC[Tle]GK[Phe(3-CH2NH2)]([γGlu-γGlu-DOTA])DVYC[1Nal]FP-NH2; disulfide 3-11)
